Assay results as given in patent US9708336B2, “Metallo-beta-lactamase inhibitors” (priority 2014, dated 2017).
Where two headings read alike, the source gives them in different places.

Key:
NDM-1 = NDM-1 (Klebsiella pneumoniae, UniProt C7C422); assay: biochemical; assay type: biochemical; conditions: read-out: NDM-1 IC50
IMP-1 = IMP-1 (Serratia marcescens, UniProt P52699); assay: biochemical; assay type: biochemical; conditions: read-out: IMP-1 IC50
[1] = tested on: Klebsiella pneumoniae expressing VIM-1 (IHMA599644); assay: Antibiotic potentiation activity: synergistic concentration (MITC95) with imipenem, OD600 growth; assay type: cell-based; conditions: for Klebsiella pneumoniae expressing VIM-1 (IHMA 599644) MITC95: concentration giving 95% inhibition of bacterial growth
Summary of the method: (§1)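 CLB30005 was precultured on Mueller Hinton agar with 8 ug/ml imipenem, the other strains on trypticase soy agar with 5% sheep blood, overnight at 35 °C. Saline suspensions diluted 1:100 in 1.1× CAMHB received compound and 4 μg/ml imipenem, then 22–24 h at 35 °C before absorbance reading.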

[2] = tested on: Escherichia coli expressing NDM-1 (CLB30016); assay: as above; assay type: cell-based; conditions: for Escherichia coli expressing NDM-1 (CLB 30016) MITC95: concentration giving 95% inhibition of bacterial growth
Summary of the method: as §1

[3] = tested on: Serratia marcescens expressing IMP-1 (CL5741); assay: as above; assay type: cell-based; conditions: for Serratia marcescens expressing IMP-1 (CL5741) MITC95: concentration giving 95% inhibition of bacterial growth
Summary of the method: as §1

VIM-1 = VIM-1 (Pseudomonas aeruginosa (strain ATCC 15692 / DSM 22644 / CIP 104116 / JCM 14847 / LMG 12228 / 1C / PRS 101 / PAO1), UniProt A0A0F7KYQ8); assay: Enzyme activity: determination of IC50, fluorescence assay with CCF2-FA substrate (VIM-1); assay type: biochemical
[4] = fluorescence assay with CCF2-FA substrate
[5] = fluorescence assay with CCF2-FA substrate, read-out: VIM-1 IC50
[6] = NDM-1 enzyme, CCF2-FA fluorescence assay
[7] = IMP-1 enzyme, CCF2-FA fluorescence assay
[8] = Klebsiella pneumoniae expressing VIM-1 (IHMA599644), 95% growth inhibition
[9] = Escherichia coli expressing NDM-1 (CLB30016), 95% growth inhibition
[10] = Serratia marcescens expressing IMP-1 (CL5741), 95% growth inhibition
[11] = VIM-1 enzyme, CCF2-FA fluorescence assay, read-out: VIM-1 IC50
[12] = NDM-1 enzyme, CCF2-FA substrate
[13] = IMP-1 enzyme, CCF2-FA substrate
[14] = Klebsiella pneumoniae IHMA599644 (VIM-1), 95% growth inhibition
[15] = (CLB30016, NDM-1), 95% growth inhibition
[16] = Serratia marcescens CL5741 (IMP-1), 95% growth inhibition
[17] = VIM-1 IC50, VIM-1 enzyme, CCF2-FA substrate
[18] = IHMA599644 (VIM-1), 95% inhibition of bacterial growth
[19] = CLB30016 (NDM-1), 95% inhibition of bacterial growth
[20] = CL5741 (IMP-1), 95% inhibition of bacterial growth
[21] = VIM-1 enzyme, CCF2-FA substrate, read-out: VIM-1 IC50

IMP-1, sequence (P52699 whole entry, looked up): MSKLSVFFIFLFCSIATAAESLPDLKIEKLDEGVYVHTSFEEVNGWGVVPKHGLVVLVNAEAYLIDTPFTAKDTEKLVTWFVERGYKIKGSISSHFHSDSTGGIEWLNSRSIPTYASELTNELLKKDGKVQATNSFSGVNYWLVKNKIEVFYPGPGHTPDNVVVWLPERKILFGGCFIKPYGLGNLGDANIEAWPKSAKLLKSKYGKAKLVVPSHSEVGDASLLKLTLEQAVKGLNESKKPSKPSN
NDM-1, sequence (C7C422 whole entry, looked up, species assumed): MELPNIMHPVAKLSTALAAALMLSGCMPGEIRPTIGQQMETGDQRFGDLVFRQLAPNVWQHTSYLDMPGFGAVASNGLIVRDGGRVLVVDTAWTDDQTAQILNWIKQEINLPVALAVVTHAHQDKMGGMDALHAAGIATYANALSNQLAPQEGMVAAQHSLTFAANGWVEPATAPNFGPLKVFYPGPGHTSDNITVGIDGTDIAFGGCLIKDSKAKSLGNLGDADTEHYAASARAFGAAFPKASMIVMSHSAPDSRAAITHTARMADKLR

| SMILES | IC50 (NDM-1; [4]) [nM] | IC50 (IMP-1; [4]) [nM] | IC50 (VIM-1; [5]) [nM] | IC50 (NDM-1; [6]) [nM] | IC50 (IMP-1; [7]) [nM] | Klebsiella pneumoniae MITC95 [1, 8] [µM] | Escherichia coli MITC95 [2, 9] [µM] | Serratia marcescens MITC95 [3, 10] [µM] | IC50 (VIM-1; [11]) [nM] | further results |
| --- | --- | --- | --- | --- | --- | --- | --- | --- | --- | --- |
| NS(=O)(=O)c1cccc(-c2cnc(NC3CC3)nc2)c1-c1nnn[nH]1 [Example 123, 3-(2-(cyclopropylamino)pyrimidin-5-yl)-2-(1H-tetrazol-5-yl)benzenesulfonamide] | 8.3 | 415 | 309 | – | – | – | – | – | – | Klebsiella pneumoniae expressing VIM-1 (IHMA 599644) MITC95 [1]: >200 µM; Escherichia coli expressing NDM-1 (CLB 30016) MITC95 [2]: 1.563 µM; Serratia marcescens expressing IMP-1 (CL5741) MITC95 [3]: 18.75 µM |
| NS(=O)(=O)c1cccc(-c2ccc(CNCCO)cc2)c1-c1nnn[nH]1 [Example 390, 4′-{[(2-hydroxyethyl)amino]methyl}-2-(1H-tetrazol-5-yl)biphenyl-3-sulfonamide] | – | – | – | 12.2 | 483 | 62.5 | 0.7813 | 6.25 | 222 | – |
| Nc1cc(-c2ccc(C(F)(F)F)c(S(N)(=O)=O)c2-c2nnn[nH]2)cc(N)n1 [Example 714, 3-(2,6-diaminopyridin-4-yl)-2-(1H-tetrazol-5-yl)-6-(trifluoromethyl)benzenesulfon-amide] | – | – | – | – | – | – | – | – | – | IC50 (NDM-1; [12]): 5.05 nM; IC50 (IMP-1; [13]): 31.7 nM; Klebsiella pneumoniae MITC95 [1, 14]: 3.125 µM; Escherichia coli MITC95 [2, 15]: 1.563 µM; Serratia marcescens MITC95 [3, 16]: 12.5 µM; IC50 (VIM-1; [17]): 0.799 nM |
| NS(=O)(=O)c1c(C(F)(F)F)ccc(-c2ccc(C3CN(CC4CCNC4)C3)cc2)c1-c1nnn[nH]1 (stereo not drawn) [Example 818, 4′-[1-(pyrrolidin-3-ylmethyl)azetidin-3-yl]-2-(1H-tetrazol-5-yl)-4-(trifluoromethyl)biphenyl-3-sulfonamide] | 4.38 | 8.6 | 17.2 | – | – | – | – | – | – | Klebsiella pneumoniae MITC95 [1, 18]: 12.5 µM; Escherichia coli MITC95 [2, 19]: 1.563 µM; Serratia marcescens MITC95 [3, 20]: 3.125 µM |
| Cc1ccc(Cc2cccc(S(N)(=O)=O)c2-c2nnn[nH]2)cc1 [Example 163, 3-(4-methylbenzyl)-2-(1H-tetrazol-5-yl)benzenesulfonamide] | 17.7 | 327 | 437 | – | – | – | – | – | – | Klebsiella pneumoniae expressing VIM-1 (IHMA 599644) MITC95 [1]: >200 µM; Escherichia coli expressing NDM-1 (CLB 30016) MITC95 [2]: 3.125 µM; Serratia marcescens expressing IMP-1 (CL5741) MITC95 [3]: 12.5 µM |
| NC1(CN2CCC3(CCC(c4ccc(C(F)(F)F)c(S(N)(=O)=O)c4-c4nnn[nH]4)CC3)CC2)CC1 [Example 834, 3-[3-[(1-aminocyclopropyl)methyl]-3-azaspiro[5.5]undecan-9-yl]-2-(1H-tetrazol-5-yl)-6-(trifluoromethyl)benzenesulfonamide] | 1.49 | 5.45 | 13.3 | – | – | – | – | – | – | Klebsiella pneumoniae MITC95 [1, 18]: 50 µM; Escherichia coli MITC95 [2, 19]: 6.25 µM; Serratia marcescens MITC95 [3, 20]: 6.25 µM |
| NS(=O)(=O)c1c(C(F)(F)F)ccc(-c2cccn3cncc23)c1-c1nnn[nH]1 [Example 485, 3-(Imidazo[1,5-a]pyridin-8-yl)-2-(1H-tetrazol-5-yl)-6-(trifluoromethyl)benzenesulfonamide] | – | – | – | 1.57 | 4.98 | 6.25 | 3.125 | 12.5 | 0.197 | – |
| N=CNCc1ccc(-c2ccc(Br)c(S(N)(=O)=O)c2-c2nn[nH]n2)cc1 [Example 425, N-((4′-bromo-3′-sulfamoyl-2′-(2H-tetrazol-5-yl)-[1,1′-biphenyl]-4-yl)methyl)formimidamide] | – | – | – | 13.5 | 15.9 | 1.563 | 0.3906 | 0.5859 | – | IC50 (VIM-1; VIM-1 IC50, VIM-1 enzyme, CCF2-FA fluorescence assay): 4.07 nM |
| NS(=O)(=O)c1cccc(-c2ccc(CN3CCCC3CO)cc2)c1-c1nnn[nH]1 (stereo not drawn) [Example 395, 4′-{[2-(hydroxymethyl)pyrrolidin-1-yl]methyl}-2-(1H-tetrazol-5-yl)biphenyl-3-sulfonamide] | – | – | – | 14.4 | 226 | 100 | 1.563 | 3.125 | 343 | – |
| NS(=O)(=O)c1c(C(F)(F)F)ccc([C@H]2CC[C@H](NC3CC4(CCNCC4)C3)CC2)c1-c1nnn[nH]1 [Example 685, 3-[4-(7-azaspiro[3.5]non-2-ylamino)cyclohexyl]-2-(1H-tetrazol-5-yl)-6-(trifluoromethyl)benzene sulfonamide] | – | – | – | – | – | – | – | – | – | IC50 (NDM-1; [12]): 30 nM; IC50 (IMP-1; [13]): 75.8 nM; Klebsiella pneumoniae MITC95 [1, 14]: 25 µM; Escherichia coli MITC95 [2, 15]: 1.563 µM; Serratia marcescens MITC95 [3, 16]: 6.25 µM; IC50 (VIM-1; [21]): 4.88 nM |
| NS(=O)(=O)c1cccc(-c2ccc(CNCCN3CCCC3)cc2)c1-c1nn[nH]n1 [Example 328, 4′-(((2-(pyrrolidin-1-yl)ethyl)amino)methyl)-2-(2H-tetrazol-5-yl)-[1,1′-biphenyl]-3-sulfonamide] | – | – | – | 20.4 | 325 | 125 | 1.563 | 6.25 | 473 | – |
| N=C(N)c1nc2c(-c3ccc(C(F)(F)F)c(S(N)(=O)=O)c3-c3nnn[nH]3)cccc2s1 [Example 482, 4-(3-Sulfamoyl-2-(1H-tetrazol-5-yl)-4-(trifluoromethyl)phenyl)benzo[d]thiazole-2-carboximidamide] | – | – | – | 0.889 | 7.24 | 3.125 | 1.563 | 3.125 | 0.194 | – |
| NS(=O)(=O)c1c(C(F)(F)F)ccc(-c2cnc(N3CCNCC3)nc2)c1-c1nnn[nH]1 [Example 706, 3-(2-piperazin-1-ylpyrimidin-5-yl)-2-(1H-tetrazol-5-yl)-6-(trifluoromethyl)benzenesulfon-amide] | – | – | – | – | – | – | – | – | – | IC50 (NDM-1; [12]): 4.52 nM; IC50 (IMP-1; [13]): 12.4 nM; Klebsiella pneumoniae MITC95 [1, 14]: 1.563 µM; Escherichia coli MITC95 [2, 15]: 3.125 µM; Serratia marcescens MITC95 [3, 16]: 6.25 µM; IC50 (VIM-1; [17]): 0.632 nM |
| Nc1nc2c(-c3ccc(CCC(=O)O)c(S(N)(=O)=O)c3-c3nn[nH]n3)cccc2s1 [Example 538, 3-(4-(2-Aminobenzo[d]thiazol-4-yl)-2-sulfamoyl-3-(2H-tetrazol-5-yl)phenyl)propanoic acid] | – | – | – | – | – | – | – | – | – | IC50 (NDM-1; [12]): 1.4 nM; IC50 (IMP-1; [13]): 53.8 nM; Klebsiella pneumoniae MITC95 [1, 14]: 100 µM; Escherichia coli MITC95 [2, 15]: 6.25 µM; Serratia marcescens MITC95 [3, 16]: 50 µM; IC50 (VIM-1; [21]): 40.3 nM |
| NS(=O)(=O)c1c(C(F)(F)F)ccc(-c2ccc(C3CN(CC4CNC4)C3)cc2)c1-c1nnn[nH]1 [Example 800, 4′-[1-(azetidin-3-ylmethyl)azetidin-3-yl]-2-(1H-tetrazol-5-yl)-4-(trifluoromethyl)biphenyl-3-sulfonamide] | 2.68 | 5.14 | 14.3 | – | – | – | – | – | – | Klebsiella pneumoniae MITC95 [1, 18]: 12.5 µM; Escherichia coli MITC95 [2, 19]: 0.7813 µM; Serratia marcescens MITC95 [3, 20]: 6.25 µM |
| COc1ccc2cc(-c3cccc(S(N)(=O)=O)c3-c3nnn[nH]3)cnc2n1 [Example 138, 3-(7-methoxy-1,8-naphthyridin-3-yl)-2-(1H-tetrazol-5-yl)benzenesulfonamide] | 6.78 | 354 | 166 | – | – | – | – | – | – | Klebsiella pneumoniae expressing VIM-1 (IHMA 599644) MITC95 [1]: >200 µM; Escherichia coli expressing NDM-1 (CLB 30016) MITC95 [2]: 1.563 µM; Serratia marcescens expressing IMP-1 (CL5741) MITC95 [3]: 37.5 µM |
| NS(=O)(=O)c1cccc(-c2ccc(CNCC(=O)NO)cc2)c1-c1nnn[nH]1 [Example 330, N-hydroxy-2-(((3′-sulfamoyl-2′-(1H-tetrazol-5-yl)-[1,1′-biphenyl]-4-yl)methyl)amino)acetamide] | – | – | – | 12.5 | 118 | 50 | 1.563 | 4.688 | 401 | – |
| NS(=O)(=O)c1c(C(F)(F)F)ccc(-c2ccc(C3CCN(C4CCNCC4)CC3)cc2)c1-c1nnn[nH]1 [Example 785, 4′-(1,4′-bipiperidin-4-yl)-2-(1H-tetrazol-5-yl)-4-(trifluoromethyl)biphenyl-3-sulfonamide] | 4.21 | 1.09 | 12.2 | – | – | – | – | – | – | Klebsiella pneumoniae MITC95 [1, 18]: 25 µM; Escherichia coli MITC95 [2, 19]: 1.563 µM; Serratia marcescens MITC95 [3, 20]: 3.125 µM |
